Assay results: US20260250257A1, “ANTIBACTERIAL AND SYNERGISTIC ACTIVE COMPOUND AND USE THEREOF” (EAST CHINA UNIVERSITY OF SCIENCE AND TECHNOLOGY, priority 2023, published 2026)

Legend:
Format in all cases: cell-based
[1] = tested on: ATCC19606 strain (Acinetobacter baumannii); test: Checkerboard antibacterial synergistic activity test with polymyxin E (FIC); set-up: key: FIC≤0.5 synergy; 0.5–1 additive; 1–2 indifferent; ≥2 antagonism; conditions: combined with polymyxin E
Method in brief: (§1)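 FIC values come from a microdilution checkerboard crossing polymyxin E against the test compound in MH medium, with uninoculated blanks included. Incubation lasts 16 h at 37° C. Scoring: synergy at FIC ≤0.5, additivity between 0.5 and 1, indifference between 1 and 2, antagonism at 2 or above.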

[2] = tested on: ATCC25922 strain (Escherichia coli); test: as above; set-up: key: FIC≤0.5 synergy; 0.5–1 additive; 1–2 indifferent; ≥2 antagonism; conditions: combined with polymyxin E
Method in brief: as §1

[3] = tested on: ATCC9027 strain (Pseudomonas aeruginosa); test: as above; set-up: key: FIC≤0.5 synergy; 0.5–1 additive; 1–2 indifferent; ≥2 antagonism; conditions: combined with polymyxin E
Method in brief: as §1

[4] = tested on: ATCC13883 strain (Klebsiella pneumoniae); test: as above; set-up: key: FIC≤0.5 synergy; 0.5–1 additive; 1–2 indifferent; ≥2 antagonism; conditions: combined with polymyxin E
Method in brief: as §1

[5] = tested on: ATCC19606 strain (Acinetobacter baumannii); test: Broth microdilution, antibacterial activity of the compound used alone
Source text: (§2) The broth microdilution method was used to test the antibacterial effects of the compounds of the present invention against various Gram-negative bacterial strains when used alone.

[6] = tested on: ATCC25922 strain (Escherichia coli); test: as above
Source text: as §2

[7] = tested on: ATCC9027 strain (Pseudomonas aeruginosa); test: as above
Source text: as §2

[8] = tested on: ATCC13883 strain (Klebsiella pneumoniae); test: as above
Source text: as §2

| SMILES | Synergistic activity (FIC value) ATCC19606 [1] | Synergistic activity (FIC value) ATCC25922 [2] | Synergistic activity (FIC value) ATCC9027 [3] | Synergistic activity (FIC value) ATCC13883 [4] | Antibacterial activity of the compound of Formula I, ATCC19606 [5] [µg/mL] | Antibacterial activity of the compound of Formula I, ATCC25922 [6] [µg/mL] | Antibacterial activity of the compound of Formula I, ATCC9027 [7] [µg/mL] | Antibacterial activity of the compound of Formula I, ATCC13883 [8] [µg/mL] |
| --- | --- | --- | --- | --- | --- | --- | --- | --- |
| Clc1cccc(-c2csc(N=C3NCCCN3)n2)c1Cl [Compound I-184] | 0.28 | 0.5 | 0.63 | 0.25 | 256 | 256 | 256 | 256 |
| Clc1cccc(-c2nc(N=C3NCCCN3)sc2Br)c1 [Compound I-185] | 0.75 | 1.25 | 1.25 | 1.25 | 256 | 256 | 256 | 256 |
| FC(F)(F)c1cc(-c2nc(N=C3NCCCN3)sc2Cl)ccc1Cl [Compound I-186] | 0.13 | 0.52 | 1.25 | 0.19 | 256 | 256 | 256 | 256 |
| Clc1cc(Cl)cc(-c2csc(N=C3NCCCN3)n2)c1 [Compound I-187] | 0.25 | 0.56 | 0.5 | 0.31 | 256 | 128 | 64 | 128 |
| Oc1c(Cl)cc(-c2csc(N=C3NCCCN3)n2)cc1Cl [Compound I-188] | 0.25 | 1.25 | 0.52 | 1.25 | 256 | 256 | 256 | 256 |
| c1ccn2c(-c3coc(N=C4NCCCN4)n3)ccc2c1 [Compound I-189] | 0.28 | 0.5 | 0.63 | 0.25 | 256 | 256 | 256 | 256 |
| CSc1cc2ccccn2c1-c1c[nH]c(N=C2NCCCN2)n1 [Compound I-190] | 0.75 | 1.25 | 1.25 | 1.25 | 256 | 256 | 256 | 256 |
| CSc1cc2c(C)cccn2c1-c1c[se]c(N=C2NCCCN2)n1 [Compound I-191] | 0.13 | 0.52 | 0.51 | 0.19 | 256 | 256 | 256 | 256 |
| CSc1cc2cc(C)ccn2c1-c1coc(N=C2NCCCN2)n1 [Compound I-192] | 0.5 | 0.38 | 0.63 | 0.38 | 256 | 256 | 256 | 256 |
| CCc1sc(N=C2NCCCN2)nc1-c1c(SC)cc2ccc(C)cn12 [Compound I-193] | 1.25 | 0.53 | 1.25 | 1.25 | 256 | 256 | 256 | 256 |
| CSc1cc2cccc(C)n2c1-c1csc(N=C2NCCCN2)n1 [Compound I-194] | 1.25 | 0.5 | 0.63 | 1.25 | 256 | 128 | 64 | 128 |
| CSc1cc2cc(C)cc(C)n2c1-c1nc(N=C2NCCCN2)sc1C [Compound I-195] | 0.14 | 0.31 | 0.52 | 0.25 | 256 | 256 | 256 | 256 |
| CSc1cc2c(Cl)cccn2c1-c1nc(N=C2NCCCN2)sc1Cl [Compound I-196] | 0.13 | 0.52 | 1.25 | 0.19 | 256 | 256 | 256 | 256 |
| CCc1oc(N=C2NCCCN2)nc1-c1c(SC)cc2cc(Cl)cc(Cl)n12 [Compound I-197] | 0.31 | 0.27 | 0.52 | 0.25 | 256 | 256 | 256 | 256 |
| O=C(Nc1ccccc1)Nc1cccc(-c2nc(N=C3NCCCN3)sc2Br)c1 [Compound I-198] | 0.75 | 0.5 | 1.25 | 1.25 | 256 | 128 | 64 | 128 |
| Cc1ccc(NC(=O)Nc2cccc(-c3c[nH]c(N=C4NCCCN4)n3)c2)c(C)c1 [Compound I-199] | 0.16 | 0.51 | 0.75 | 0.51 | 256 | 256 | 256 | 256 |
| O=C(Nc1cccc(-c2coc(N=C3NCCCN3)n2)c1)Nc1ccc(Cl)cc1Cl [Compound I-200] | 0.25 | 1.25 | 0.53 | 0.53 | 256 | 256 | 256 | 256 |
